Measurements from patent publication US12595222B2, “Curcuminoids, analogs thereof, and methods of making the same” (WiSys Technology Foundation, Inc., priority 2021, dated 2026).

Tested on: Epstein-Barr virus (EBV)
Assay: EBV reactivation (viral BZLF1 gene expression) inhibition
Assay type: cell-based
Settings: 3 mM; compared to low expression in unactivated cells
Experimental: FIG. 20B illustrates EBV reactivation in the presence of the curcuminoids shown in FIG. 28A, measured by increased viral BZLF1 gene expression, is induced with a known reactivating drug, sodium butyrate (3 mM) compared to low expression in unactivated cells, in accordance with various embodiments. EBV reactivation was inhibited by five novel curcuminoids (10 μM).

CCCC(=O)[O-].[Na+] [sodium butyrate]
EBV reactivation, measured by increased viral BZLF1 gene expression: induced
